Article PMC10732257 (Oncotarget, 2023)

What was measured:
5-HT1A (serotonin) = target: T1, 5-HT1A (serotonin) (Homo sapiens, UniProt P08908); assay: GPCR agonist action testing; type: cell-based
T1 construct: Wuxi AppTech (Shanghai, China)
Text: (§1) Supplementary Table 2: Results of GPCR agonist action testing of GFH009 administered at a
(§2) Agonist action against GPCR type shown below
(§3) Target % Agonist Effect @ Max Dose
(§4) M1 (muscarinic Ach) −2.18
(§5) M2 (muscarinic Ach) −0.63

5-HT1B (serotonin) = target: T2, 5-HT1B (serotonin) (Homo sapiens, UniProt P28222); assay: GPCR agonist action testing; type: cell-based
T2 construct: Wuxi AppTech (Shanghai, China)
T2 sequence (P28222 whole entry, species assumed): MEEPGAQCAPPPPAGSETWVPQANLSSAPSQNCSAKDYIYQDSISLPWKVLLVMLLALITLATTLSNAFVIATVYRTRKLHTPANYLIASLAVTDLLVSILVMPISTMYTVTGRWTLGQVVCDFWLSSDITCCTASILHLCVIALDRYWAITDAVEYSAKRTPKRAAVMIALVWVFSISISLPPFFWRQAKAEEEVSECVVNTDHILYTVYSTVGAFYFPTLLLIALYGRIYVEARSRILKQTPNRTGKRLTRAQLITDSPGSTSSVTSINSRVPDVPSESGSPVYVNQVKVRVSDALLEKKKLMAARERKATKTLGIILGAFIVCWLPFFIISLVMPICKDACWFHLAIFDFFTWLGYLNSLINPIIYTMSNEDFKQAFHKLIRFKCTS
Text: as §1, §2, §3, §4, §5

5-HT2A (serotonin) = target: T3, 5-HT2A (serotonin) (Homo sapiens, UniProt P28223); assay: GPCR agonist action testing; type: cell-based
T3 construct: Wuxi AppTech (Shanghai, China)
T3 sequence (P28223 whole entry): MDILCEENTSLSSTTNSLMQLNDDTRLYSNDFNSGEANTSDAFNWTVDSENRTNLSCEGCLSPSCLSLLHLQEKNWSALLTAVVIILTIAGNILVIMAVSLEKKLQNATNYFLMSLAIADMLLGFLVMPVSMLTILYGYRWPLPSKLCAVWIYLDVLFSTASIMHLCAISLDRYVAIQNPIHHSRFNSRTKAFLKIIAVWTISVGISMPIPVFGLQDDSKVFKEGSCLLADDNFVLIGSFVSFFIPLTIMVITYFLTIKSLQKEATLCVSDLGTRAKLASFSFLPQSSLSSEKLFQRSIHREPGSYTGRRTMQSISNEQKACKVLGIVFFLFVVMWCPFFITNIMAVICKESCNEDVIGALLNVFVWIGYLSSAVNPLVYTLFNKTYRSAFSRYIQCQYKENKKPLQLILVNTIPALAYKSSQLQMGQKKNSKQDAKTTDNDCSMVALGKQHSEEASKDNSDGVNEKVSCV
Text: as §1, §2, §3, §4, §5

5-HT2B (serotonin) = target: T4, 5-HT2B (serotonin) (Homo sapiens, UniProt P41595); assay: GPCR agonist action testing; type: cell-based
T4 construct: Wuxi AppTech (Shanghai, China)
T4 sequence (P41595 whole entry, species assumed): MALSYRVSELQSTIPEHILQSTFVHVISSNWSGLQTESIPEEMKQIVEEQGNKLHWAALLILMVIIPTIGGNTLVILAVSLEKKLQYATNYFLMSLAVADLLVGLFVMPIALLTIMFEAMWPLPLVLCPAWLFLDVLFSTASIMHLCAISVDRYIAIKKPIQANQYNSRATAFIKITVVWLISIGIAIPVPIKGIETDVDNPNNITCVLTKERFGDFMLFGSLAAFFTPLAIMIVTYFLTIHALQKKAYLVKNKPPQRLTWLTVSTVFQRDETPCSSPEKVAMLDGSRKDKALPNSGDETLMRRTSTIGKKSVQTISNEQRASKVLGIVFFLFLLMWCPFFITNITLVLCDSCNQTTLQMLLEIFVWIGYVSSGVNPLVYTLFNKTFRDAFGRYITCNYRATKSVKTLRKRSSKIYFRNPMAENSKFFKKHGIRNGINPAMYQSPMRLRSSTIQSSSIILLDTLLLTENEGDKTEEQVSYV
Text: as §1, §2, §3, §4, §5

AD2 (adenosine) = assay: GPCR agonist action testing; type: cell-based
Text: as §1, §2, §3, §4, §5

CB1 (cannabinoid) = target: T5, CB1 (cannabinoid) (Homo sapiens, UniProt P21554); assay: GPCR agonist action testing; type: cell-based
T5 construct: Wuxi AppTech (contract laboratory)
Text: as §1, §2, §3, §4, §5

CB2 (cannabinoid) = target: T6, CB2 (cannabinoid) (Homo sapiens, UniProt P34972); assay: GPCR agonist action testing; type: cell-based
T6 construct: Wuxi AppTech (contract laboratory)
T6 sequence (P34972 whole entry, species assumed): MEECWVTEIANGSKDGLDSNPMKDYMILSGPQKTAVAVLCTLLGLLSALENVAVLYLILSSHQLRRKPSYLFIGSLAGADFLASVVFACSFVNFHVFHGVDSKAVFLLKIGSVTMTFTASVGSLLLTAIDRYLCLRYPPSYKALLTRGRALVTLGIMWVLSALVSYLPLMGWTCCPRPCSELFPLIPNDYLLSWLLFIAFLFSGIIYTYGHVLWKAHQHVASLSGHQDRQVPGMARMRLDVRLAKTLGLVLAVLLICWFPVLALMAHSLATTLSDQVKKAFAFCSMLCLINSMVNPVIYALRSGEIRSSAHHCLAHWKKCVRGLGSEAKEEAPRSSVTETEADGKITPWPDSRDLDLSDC
Text: as §1, §2, §3, §4, §5

CCKa = target: T7, CCKa (Homo sapiens, UniProt P32238); assay: GPCR agonist action testing; type: cell-based
T7 construct: Wuxi AppTech (contract laboratory)
T7 sequence (P32238 whole entry): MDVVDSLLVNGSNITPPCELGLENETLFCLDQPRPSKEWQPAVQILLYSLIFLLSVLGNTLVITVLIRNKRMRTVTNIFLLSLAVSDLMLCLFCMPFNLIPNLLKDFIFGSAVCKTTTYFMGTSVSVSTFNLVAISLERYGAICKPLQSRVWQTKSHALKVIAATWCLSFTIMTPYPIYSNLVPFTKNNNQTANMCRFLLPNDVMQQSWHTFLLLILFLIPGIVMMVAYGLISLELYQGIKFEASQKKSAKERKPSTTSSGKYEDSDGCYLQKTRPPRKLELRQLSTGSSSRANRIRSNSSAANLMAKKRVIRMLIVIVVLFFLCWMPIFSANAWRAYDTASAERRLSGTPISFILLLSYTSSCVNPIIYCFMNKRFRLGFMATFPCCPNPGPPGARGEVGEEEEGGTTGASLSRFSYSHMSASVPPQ
Text: as §1, §2, §3, §4, §5

D1 (dopamine) = target: T8, D1 (dopamine) (Homo sapiens, UniProt P21728); assay: GPCR agonist action testing; type: cell-based
T8 construct: Wuxi AppTech (contract laboratory)
T8 sequence (P21728 whole entry): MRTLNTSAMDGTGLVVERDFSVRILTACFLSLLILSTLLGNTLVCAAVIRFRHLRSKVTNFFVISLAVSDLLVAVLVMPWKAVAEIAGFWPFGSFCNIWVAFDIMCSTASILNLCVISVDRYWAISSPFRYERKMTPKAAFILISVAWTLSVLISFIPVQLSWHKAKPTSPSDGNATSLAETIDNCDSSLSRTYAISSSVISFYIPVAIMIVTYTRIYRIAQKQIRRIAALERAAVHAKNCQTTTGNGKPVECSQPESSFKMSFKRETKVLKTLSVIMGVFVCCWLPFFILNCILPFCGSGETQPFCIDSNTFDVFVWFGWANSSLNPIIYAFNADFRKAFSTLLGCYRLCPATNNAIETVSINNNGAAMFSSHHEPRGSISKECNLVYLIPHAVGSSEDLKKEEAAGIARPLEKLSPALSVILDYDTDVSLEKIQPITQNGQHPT
Text: as §1, §2, §3, §4, §5

D2 (dopamine) = target: T9, D2 (dopamine) (Homo sapiens, UniProt P14416); assay: GPCR agonist action testing; type: cell-based
T9 construct: Wuxi AppTech (contract laboratory)
Text: as §1, §2, §3, §4, §5

ETA (endothelin) = target: T10, ETA (endothelin) (Homo sapiens, UniProt P25101); assay: GPCR agonist action testing; type: cell-based
T10 construct: Wuxi AppTech (contract laboratory)
Text: as §1, §2, §3, §4, §5

H1 (histamine) = target: T11, H1 (histamine) (Homo sapiens, UniProt P35367); assay: GPCR agonist action testing; type: cell-based
T11 construct: Wuxi AppTech (contract laboratory)
Text: as §1, §2, §3, §4, §5

H2 (histamine) = H2 (histamine) (Homo sapiens, UniProt P25021); assay: GPCR agonist action testing; type: cell-based
Text: as §1, §2, §3, §4, §5

M1 (muscarinic Ach) = M1 (muscarinic Ach) (Homo sapiens, UniProt P11229); assay: GPCR agonist action testing; type: cell-based
Text: as §1, §2, §3, §4, §5

M2 (muscarinic Ach) = M2 (muscarinic Ach) (Homo sapiens, UniProt P08172); assay: GPCR agonist action testing; type: cell-based
Text: as §1, §2, §3, §4, §5

M3 (muscarinic Ach) = M3 (muscarinic Ach) (Homo sapiens, UniProt P20309); assay: GPCR agonist action testing; type: cell-based
Text: as §1, §2, §3, §4, §5

V1A (vasopressin) = V1A (vasopressin) (Homo sapiens, UniProt P37288); assay: GPCR agonist action testing; type: cell-based
Text: as §1, §2, §3, §4, §5

a1a (adrenoceptor) = target: T12, a1a (adrenoceptor) (Homo sapiens, UniProt P35348); assay: GPCR agonist action testing; type: cell-based
T12 construct: Wuxi AppTech (contract laboratory)
T12 sequence (P35348 whole entry): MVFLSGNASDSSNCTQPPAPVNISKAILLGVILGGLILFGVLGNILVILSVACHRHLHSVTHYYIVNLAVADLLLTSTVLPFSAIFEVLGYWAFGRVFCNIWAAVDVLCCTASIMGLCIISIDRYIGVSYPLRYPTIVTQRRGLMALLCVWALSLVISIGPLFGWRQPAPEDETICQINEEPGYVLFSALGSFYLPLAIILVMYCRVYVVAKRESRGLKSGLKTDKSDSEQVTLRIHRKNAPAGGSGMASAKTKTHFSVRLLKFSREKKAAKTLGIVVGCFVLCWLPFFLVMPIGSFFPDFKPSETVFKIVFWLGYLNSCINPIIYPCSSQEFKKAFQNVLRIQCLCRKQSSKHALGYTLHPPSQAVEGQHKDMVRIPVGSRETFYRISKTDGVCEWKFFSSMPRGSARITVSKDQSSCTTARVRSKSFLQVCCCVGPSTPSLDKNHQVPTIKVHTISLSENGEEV
Text: as §1, §2, §3, §4, §5

a2a (adrenoceptor) = target: T13, a2a (adrenoceptor) (Homo sapiens, UniProt P08913); assay: GPCR agonist action testing; type: cell-based
T13 construct: Wuxi AppTech (contract laboratory)
T13 sequence (P08913 whole entry): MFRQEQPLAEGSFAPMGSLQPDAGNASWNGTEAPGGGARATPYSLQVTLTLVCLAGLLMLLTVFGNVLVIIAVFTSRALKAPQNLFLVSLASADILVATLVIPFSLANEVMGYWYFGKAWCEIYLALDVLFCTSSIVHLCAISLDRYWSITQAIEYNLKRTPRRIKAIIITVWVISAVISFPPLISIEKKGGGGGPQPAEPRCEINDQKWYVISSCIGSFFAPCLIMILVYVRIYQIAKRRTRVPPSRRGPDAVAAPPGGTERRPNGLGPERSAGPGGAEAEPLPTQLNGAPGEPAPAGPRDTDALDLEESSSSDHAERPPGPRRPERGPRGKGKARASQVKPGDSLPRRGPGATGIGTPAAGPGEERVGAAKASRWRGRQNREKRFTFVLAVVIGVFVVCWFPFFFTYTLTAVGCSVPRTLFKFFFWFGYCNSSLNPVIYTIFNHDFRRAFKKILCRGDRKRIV
Text: as §1, §2, §3, §4, §5

b1 (adrenoceptor) = target: T14, b1 (adrenoceptor) (Homo sapiens, UniProt P08588); assay: GPCR agonist action testing; type: cell-based
T14 construct: Wuxi AppTech (contract laboratory)
T14 sequence (P08588 whole entry): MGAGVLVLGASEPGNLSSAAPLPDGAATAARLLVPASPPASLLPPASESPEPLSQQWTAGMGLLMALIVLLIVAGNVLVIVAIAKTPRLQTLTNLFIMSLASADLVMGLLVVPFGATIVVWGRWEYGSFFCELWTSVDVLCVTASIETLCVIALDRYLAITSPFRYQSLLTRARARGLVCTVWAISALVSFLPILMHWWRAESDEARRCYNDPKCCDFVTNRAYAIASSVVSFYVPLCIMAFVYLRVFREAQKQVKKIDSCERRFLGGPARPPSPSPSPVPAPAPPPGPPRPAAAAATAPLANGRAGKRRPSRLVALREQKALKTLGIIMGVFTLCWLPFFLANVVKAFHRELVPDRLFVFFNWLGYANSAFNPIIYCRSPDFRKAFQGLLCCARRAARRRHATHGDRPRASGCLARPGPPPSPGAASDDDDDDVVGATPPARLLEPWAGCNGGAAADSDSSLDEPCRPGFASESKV
Text: as §1, §2, §3, §4, §5

b2 (adrenoceptor) = target: T15, b2 (adrenoceptor) (Homo sapiens, UniProt P07550); assay: GPCR agonist action testing; type: cell-based
T15 construct: Wuxi AppTech (contract laboratory)
T15 sequence (P07550 whole entry): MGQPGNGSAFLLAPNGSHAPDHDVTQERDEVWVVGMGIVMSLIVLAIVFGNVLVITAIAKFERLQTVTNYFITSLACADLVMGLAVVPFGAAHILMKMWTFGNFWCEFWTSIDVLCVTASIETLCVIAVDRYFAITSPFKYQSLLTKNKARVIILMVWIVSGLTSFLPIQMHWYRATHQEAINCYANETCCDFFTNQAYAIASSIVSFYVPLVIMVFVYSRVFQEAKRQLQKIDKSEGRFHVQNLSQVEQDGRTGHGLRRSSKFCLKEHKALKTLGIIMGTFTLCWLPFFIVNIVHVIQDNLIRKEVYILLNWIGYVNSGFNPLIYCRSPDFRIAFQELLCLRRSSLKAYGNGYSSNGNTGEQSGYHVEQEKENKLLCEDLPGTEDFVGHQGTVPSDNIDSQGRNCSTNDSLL
Text: as §1, §2, §3, §4, §5

op-d (opioid) = op-d (opioid) (Homo sapiens, UniProt P41143); assay: GPCR agonist action testing; type: cell-based
Text: as §1, §2, §3, §4, §5

op-k (opioid) = op-k (opioid) (Homo sapiens, UniProt P41145); assay: GPCR agonist action testing; type: cell-based
op-k (opioid), sequence (P41145 whole entry): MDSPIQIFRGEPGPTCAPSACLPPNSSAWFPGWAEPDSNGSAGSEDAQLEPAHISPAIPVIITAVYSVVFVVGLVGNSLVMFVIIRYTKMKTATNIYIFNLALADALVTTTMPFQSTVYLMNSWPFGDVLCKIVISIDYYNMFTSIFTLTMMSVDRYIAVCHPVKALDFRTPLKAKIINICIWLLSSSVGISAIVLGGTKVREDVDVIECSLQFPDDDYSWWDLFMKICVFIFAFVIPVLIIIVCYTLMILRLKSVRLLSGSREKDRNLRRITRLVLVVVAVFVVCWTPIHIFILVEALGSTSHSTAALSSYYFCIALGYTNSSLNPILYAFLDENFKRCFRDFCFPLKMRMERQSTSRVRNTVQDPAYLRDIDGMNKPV
Text: as §1, §2, §3, §4, §5

op-m (opioid) = op-m (opioid) (Homo sapiens, UniProt P35372); assay: GPCR agonist action testing; type: cell-based
Text: as §1, §2, §3, §4, §5

MV-4-11 xenograft = assay: Anti-tumor efficacy in subcutaneous MV-4-11 xenograft model; type: in vivo, female BALB/c nude mice
Description: Figure 6 Anti-tumor efficacy of GFH009 in MV-4-11 xenograft model. MV-4-11 xenograft in female BALB/c nude mice were treated with GFH009 or enitociclib at the indicated doses (n = 8 mice per group). Results are expressed as mean ± SEM. ^* P < 0.05, ^**** P < 0.0001, two-way ANOVA with Dunnett’s multiple comparisons test analysis compared to Vehicle control group.
In vivo studies of tumor suppression were conducted in female BALB/c nude mice (Beijing Vital River Laboratory Animal Technology Co, Ltd., Changping, Beijing, China) bearing MV-4-11 xenografts (ATCC, Rockville, MD, USA). Each mouse was inoculated subcutaneously into the right dorsal-region with 5.0 × 10^6 cultured MV-4-11 cells in a total volume of 0.2 ml solution and allowed to develop xenograft tumors. Once tumor size had reached […], mice were divided into groups to receive 1 of 8 different treatment preparations dosed intravenously via the tail vein (Table 2). […] Enitociclib was administered as a 1.0 mg/mL solution in ultrapure water with 5% DMSO. Vehicle control was 50 mM PBS with no dissolved treatment drug.
Animals dosed BIW were given treatments on 2 consecutive days. Weights were recorded for each mouse every day and tumor volumes assessed 3 times a week. Total treatment administration occurred across 3 consecutive weeks.
Subcutaneous tumor volume (TV) was calculated as TV = (L × W^2)/2, where L was the length and W was the width of the tumor [11]. […] TGI was calculated as TGI (%) = (1 – avTi-0/ avCi-0)) × 100, where avTi-0 is the mean TV of the treatment group on a given day minus the mean TV of this treatment group on the day of group assignment, and avCi-0 is the mean TV of the vehicle control group on a given day minus the mean TV of the vehicle control group on the day of group assignment.
Tumor volume data was subjected to a base-10 logarithmic transformation and subsequent comparisons of TV across groups was made using two-way ANOVA (Dunnett’s multiple comparisons test). All plotting and statistical analyses were conducted using GraphPad Prism 6.00 (GraphPad Software).

COC[C@@H](C)NC1CCC(Nc2cc(-c3csc(NCC4(C#N)CCOCC4)n3)c(Cl)cn2)CC1 (some centres unmarked) [GFH009] was tested, and the “% Agonist Effect @ Max Dose (12 µM)” value (5-HT1A (serotonin)) was −0.33%, the “% Agonist Effect @ Max Dose (12 µM)” value (5-HT1B (serotonin)) was −51.01% and the “% Agonist Effect @ Max Dose (12 µM)” value (5-HT2A (serotonin)) was −1.68%. For the same compound, the “% Agonist Effect @ Max Dose (12 µM)” value (5-HT2B (serotonin)) was 4.55%, the “% Agonist Effect @ Max Dose (12 µM)” value (AD2 (adenosine)) was 21.7% and the “% Agonist Effect @ Max Dose (12 µM)” value (CB1 (cannabinoid)) was −0.7%. For the same compound, the “% Agonist Effect @ Max Dose (12 µM)” value (CB2 (cannabinoid)) was 0.23%, the “% Agonist Effect @ Max Dose (12 µM)” value (CCKa) was −0.4% and the “% Agonist Effect @ Max Dose (12 µM)” value (D1 (dopamine)) was −1.49%. The “% Agonist Effect @ Max Dose (12 µM)” value (D2 (dopamine)) was 3.66%, the “% Agonist Effect @ Max Dose (12 µM)” value (ETA (endothelin)) was −0.08% and the “% Agonist Effect @ Max Dose (12 µM)” value (H1 (histamine)) was 1.55%. The “% Agonist Effect @ Max Dose (12 µM)” value (H2 (histamine)) was −0.03%, the “% Agonist Effect @ Max Dose (12 µM)” value (M1 (muscarinic Ach)) was −2.18% and the “% Agonist Effect @ Max Dose (12 µM)” value (M2 (muscarinic Ach)) was −0.63%. The “% Agonist Effect @ Max Dose (12 µM)” value (M3 (muscarinic Ach)) was 0.49%, the “% Agonist Effect @ Max Dose (12 µM)” value (V1A (vasopressin)) was 0.59% and the “% Agonist Effect @ Max Dose (12 µM)” value (a1a (adrenoceptor)) was 4.58%. The “% Agonist Effect @ Max Dose (12 µM)” value (a2a (adrenoceptor)) was −3.87%, the “% Agonist Effect @ Max Dose (12 µM)” value (b1 (adrenoceptor)) was 4.53% and the “% Agonist Effect @ Max Dose (12 µM)” value (b2 (adrenoceptor)) was −0.6%. The “% Agonist Effect @ Max Dose (12 µM)” value (op-d (opioid)) was −0.98%, the “% Agonist Effect @ Max Dose (12 µM)” value (op-k (opioid)) was 21.57% and the “% Agonist Effect @ Max Dose (12 µM)” value (op-m (opioid)) was 0.71%. For the same compound, the “Tumor total volume at 10.0 mg/kg” value (MV-4-11 xenograft; 10.0 mg/kg i.v., through day 29) was “consistent reduction in total volume” and the “Tumor growth (total volume) compared to the vehicle control” value (MV-4-11 xenograft; i.v., GFH009 maleate 2.5, 5.0, 10.0 mg/kg QW or BIW, enitociclib 10.0 mg/kg QW, 3 weeks) was “tumor growth inhibition”.
